Laboratory results: ChEMBL document CHEMBL1201862, “PubChem BioAssay data set” (2004)
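These data come from cells grown in 96-well plates and exposed to compound for 48 hours at five concentrations. Abbreviation: GI50, concentration required for 50% inhibition of growth.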 Active and inactive are the calls of the source. Rule as the data show it: active = GI50 up to about 1.1 µM and inactive = higher.

How the values were obtained:
Test in all cases: growth of human tumour cells (NCI), 48 h
DMS-114 = tested on: DMS-114
A498 = tested on: A498
HOP-92 = tested on: HOP-92
HCT-116 = tested on: HCT-116
SF-268 = tested on: SF-268
UACC-62 = tested on: UACC-62
NCI-H23 = tested on: NCI-H23
RXF 393 = tested on: RXF 393
M14 = tested on: M14
HT-29 = tested on: HT-29
UO-31 = tested on: UO-31
SK-OV-3 = tested on: SK-OV-3
HL-60 = tested on: HL-60
NCI-H460 = tested on: NCI-H460
MOLT-4 = tested on: MOLT-4
OVCAR-8 = tested on: OVCAR-8
RXF 631 = tested on: RXF 631
EKVX = tested on: EKVX
SF-295 = tested on: SF-295
SNB-19 = tested on: SNB-19
HOP-62 = tested on: HOP-62
DMS-273 = tested on: DMS-273
SK-MEL-28 = tested on: SK-MEL-28
IGROV-1 = tested on: IGROV-1
U-251 = tested on: U-251
SNB-78 = tested on: SNB-78
OVCAR-5 = tested on: OVCAR-5
NCI-H522 = tested on: NCI-H522
KM12 = tested on: KM12
M19-MEL = tested on: M19-MEL
ACHN = tested on: ACHN
TK-10 = tested on: TK-10
CCRF-CEM = tested on: CCRF-CEM
A549 = tested on: A549
UACC-257 = tested on: UACC-257
SR = tested on: SR
Malme-3M = tested on: Malme-3M
HOP-18 = tested on: HOP-18
SN12C = tested on: SN12C
OVCAR-3 = tested on: OVCAR-3
HCT-15 = tested on: HCT-15
CAKI-1 = tested on: CAKI-1
DLD-1 = tested on: DLD-1
KM-20L2 = tested on: KM-20L2
RPMI-8226 = tested on: RPMI-8226
K562 = tested on: K562
XF498 = tested on: XF498
COLO 205 = tested on: COLO 205
LXFL 529 = tested on: LXFL 529
SK-MEL-5 = tested on: SK-MEL-5
NCI-H226 = tested on: NCI-H226
HCC 2998 = tested on: HCC 2998
SK-MEL-2 = tested on: SK-MEL-2
SNB-75 = tested on: SNB-75
OVCAR-4 = tested on: OVCAR-4
786-0 = tested on: 786-0
SW-620 = tested on: SW-620
SF-539 = tested on: SF-539

For `CCC1=CC2CC(C(=O)OC)C1(N(C)C)C2=O` (stereo unspecified), the GI50 (DMS-114) was > 100 µM (inactive), the GI50 (A498) was > 100 µM (inactive) and the GI50 (HOP-92) was > 100 µM (inactive). The GI50 (HCT-116) was > 100 µM (inactive), the GI50 (SF-268) was > 100 µM (inactive) and the GI50 (UACC-62) was > 100 µM (inactive). For the same molecule, the GI50 (NCI-H23) was > 100 µM (inactive), the GI50 (RXF 393) was > 100 µM (inactive) and the GI50 (M14) was > 100 µM (inactive). For the same molecule, the GI50 (HT-29) was > 100 µM (inactive), the GI50 (UO-31) was > 100 µM (inactive) and the GI50 (SK-OV-3) was > 100 µM (inactive). The GI50 (HL-60) was > 100 µM (inactive), the GI50 (NCI-H460) was > 100 µM (inactive) and the GI50 (MOLT-4) was > 100 µM (inactive). For the same molecule, the GI50 (OVCAR-8) was > 100 µM (inactive), the GI50 (RXF 631) was > 100 µM (inactive) and the GI50 (EKVX) was > 100 µM (inactive). For the same molecule, the GI50 (SF-295) was > 100 µM (inactive), the GI50 (SNB-19) was > 100 µM (inactive) and the GI50 (HOP-62) was > 100 µM (inactive). The GI50 (DMS-273) was > 100 µM (inactive), the GI50 (SK-MEL-28) was > 100 µM (inactive) and the GI50 (IGROV-1) was > 100 µM (inactive). For the same molecule, the GI50 (U-251) was > 100 µM (inactive), the GI50 (SNB-78) was > 100 µM (inactive) and the GI50 (OVCAR-5) was > 100 µM (inactive). For the same molecule, the GI50 (NCI-H522) was > 100 µM (inactive), the GI50 (KM12) was > 100 µM (inactive) and the GI50 (M19-MEL) was > 100 µM (inactive). For the same molecule, the GI50 (ACHN) was > 100 µM (inactive), the GI50 (TK-10) was > 100 µM (inactive) and the GI50 (CCRF-CEM) was > 100 µM (inactive). For the same molecule, the GI50 (A549) was > 100 µM (inactive), the GI50 (UACC-257) was > 100 µM (inactive) and the GI50 (SR) was > 100 µM (inactive).

In the case of `CC#CC1C(OC(=O)c2ccccc2)CCCC1(CI)N=[N+]=[N-]` (stereo unspecified), the GI50 (Malme-3M) is reported as > 100 µM (inactive), the GI50 (DMS-114) is reported as 25.1 µM (inactive) and the GI50 (A498) is reported as > 100 µM (inactive). The GI50 (HOP-18) was > 100 µM (inactive), the GI50 (HOP-92) was 92.7 µM (inactive) and the GI50 (SN12C) was > 100 µM (inactive). For the same molecule, the GI50 (OVCAR-3) was > 100 µM (inactive), the GI50 (HCT-116) was 32.8 µM (inactive) and the GI50 (HCT-15) was 45.2 µM. The GI50 (CAKI-1) was > 100 µM (inactive), the GI50 (SF-268) was 67 µM (inactive) and the GI50 (DLD-1) was 52.1 µM (inactive). The GI50 (UACC-62) was > 100 µM (inactive), the GI50 (NCI-H23) was 28.3 µM (inactive) and the GI50 (KM-20L2) was 60.7 µM (inactive). For the same molecule, the GI50 (RXF 393) was 52 µM (inactive), the GI50 (M14) was 59.8 µM (inactive) and the GI50 (RPMI-8226) was 18.5 µM (inactive). For the same molecule, the GI50 (HT-29) was 40.6 µM (inactive), the GI50 (UO-31) was 56.5 µM (inactive) and the GI50 (K562) was 28.4 µM (inactive). The GI50 (SK-OV-3) was > 100 µM (inactive), the GI50 (HL-60) was 15.1 µM (inactive) and the GI50 (NCI-H460) was 60.7 µM (inactive). For the same molecule, the GI50 (MOLT-4) was 13.6 µM (inactive), the GI50 (OVCAR-8) was 59.7 µM (inactive) and the GI50 (EKVX) was 55.1 µM (inactive). The GI50 (SF-295) was 87.5 µM (inactive), the GI50 (XF498) was 20.1 µM (inactive) and the GI50 (COLO 205) was > 100 µM (inactive). The GI50 (LXFL 529) was 36.4 µM (inactive), the GI50 (SK-MEL-5) was 19.5 µM (inactive) and the GI50 (HOP-62) was 94 µM (inactive). For the same molecule, the GI50 (DMS-273) was 38.7 µM (inactive), the GI50 (IGROV-1) was > 100 µM (inactive) and the GI50 (U-251) was 59.7 µM (inactive). For the same molecule, the GI50 (NCI-H226) was 84.3 µM (inactive), the GI50 (SNB-78) was > 100 µM (inactive) and the GI50 (HCC 2998) was 90.2 µM (inactive). For the same molecule, the GI50 (SK-MEL-2) was 75 µM (inactive), the GI50 (OVCAR-5) was > 100 µM (inactive) and the GI50 (SNB-75) was > 100 µM (inactive). For the same molecule, the GI50 (NCI-H522) was 22.4 µM (inactive), the GI50 (KM12) was 89.7 µM (inactive) and the GI50 (OVCAR-4) was 60.1 µM (inactive). For the same molecule, the GI50 (M19-MEL) was 48.5 µM (inactive), the GI50 (ACHN) was > 100 µM (inactive) and the GI50 (TK-10) was > 100 µM (inactive). For the same molecule, the GI50 (CCRF-CEM) was 26.2 µM (inactive), the GI50 (A549) was 58.6 µM (inactive) and the GI50 (786-0) was > 100 µM (inactive). The GI50 (SW-620) was > 100 µM (inactive), the GI50 (UACC-257) was 38.2 µM (inactive) and the GI50 (SF-539) was > 100 µM (inactive). For the same molecule, the GI50 (SR) was 17.5 µM (inactive).
